Data on 17 molecules can be found in patent US10112926B2 (priority 2014, dated 2018).

Structures can show the parent of a compound that is named as a salt. Some results are limits rather than exact numbers.

As a reminder, the IC50 is the concentration needed to halve the response being measured.

Test [1] concerns the target Vps34 (Homo sapiens (Human), UniProt Q8NEB9). The conditions noted are these: read-out: Assay C VPS34 IC50.
For test [2], the target named is mTOR (Homo sapiens (Human), UniProt P42345). Conditions: read-out: Assay G mTOR IC50.
For test [3], the target named is PI 3-kinase alpha (Homo sapiens (Human), UniProt P42336). Conditions: read-out: Assay A PI3Kα IC50.
PI 3-kinase alpha, sequence (P42336 whole entry, looked up): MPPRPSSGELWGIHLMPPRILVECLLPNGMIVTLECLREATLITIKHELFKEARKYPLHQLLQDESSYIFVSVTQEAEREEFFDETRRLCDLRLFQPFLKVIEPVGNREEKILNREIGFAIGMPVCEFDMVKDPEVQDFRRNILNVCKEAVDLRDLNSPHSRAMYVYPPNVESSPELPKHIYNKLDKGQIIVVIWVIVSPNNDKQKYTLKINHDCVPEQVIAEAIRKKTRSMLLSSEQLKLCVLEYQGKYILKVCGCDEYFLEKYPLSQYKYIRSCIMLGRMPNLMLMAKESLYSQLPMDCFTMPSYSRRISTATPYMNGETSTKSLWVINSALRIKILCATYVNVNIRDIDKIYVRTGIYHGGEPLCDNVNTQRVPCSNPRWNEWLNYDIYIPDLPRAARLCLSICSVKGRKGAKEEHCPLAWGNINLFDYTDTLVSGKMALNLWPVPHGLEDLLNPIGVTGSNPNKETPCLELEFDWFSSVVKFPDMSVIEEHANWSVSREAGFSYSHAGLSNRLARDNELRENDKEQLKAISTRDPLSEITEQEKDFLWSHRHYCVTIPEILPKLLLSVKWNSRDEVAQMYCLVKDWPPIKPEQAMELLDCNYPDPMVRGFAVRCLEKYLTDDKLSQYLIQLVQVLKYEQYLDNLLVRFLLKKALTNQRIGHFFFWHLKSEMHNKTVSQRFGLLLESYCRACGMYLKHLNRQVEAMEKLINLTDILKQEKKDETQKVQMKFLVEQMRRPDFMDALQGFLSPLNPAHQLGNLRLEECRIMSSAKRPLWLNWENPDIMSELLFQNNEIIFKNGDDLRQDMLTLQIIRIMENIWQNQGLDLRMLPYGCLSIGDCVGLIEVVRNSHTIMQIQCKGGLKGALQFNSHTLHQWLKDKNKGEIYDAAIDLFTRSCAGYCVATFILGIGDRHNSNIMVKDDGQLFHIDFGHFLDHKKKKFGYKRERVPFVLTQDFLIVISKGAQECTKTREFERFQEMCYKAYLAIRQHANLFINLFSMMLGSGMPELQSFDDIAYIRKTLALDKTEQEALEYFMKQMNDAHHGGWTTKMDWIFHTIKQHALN
PI 3-kinase alpha, sequence (P27986 whole entry partner, looked up): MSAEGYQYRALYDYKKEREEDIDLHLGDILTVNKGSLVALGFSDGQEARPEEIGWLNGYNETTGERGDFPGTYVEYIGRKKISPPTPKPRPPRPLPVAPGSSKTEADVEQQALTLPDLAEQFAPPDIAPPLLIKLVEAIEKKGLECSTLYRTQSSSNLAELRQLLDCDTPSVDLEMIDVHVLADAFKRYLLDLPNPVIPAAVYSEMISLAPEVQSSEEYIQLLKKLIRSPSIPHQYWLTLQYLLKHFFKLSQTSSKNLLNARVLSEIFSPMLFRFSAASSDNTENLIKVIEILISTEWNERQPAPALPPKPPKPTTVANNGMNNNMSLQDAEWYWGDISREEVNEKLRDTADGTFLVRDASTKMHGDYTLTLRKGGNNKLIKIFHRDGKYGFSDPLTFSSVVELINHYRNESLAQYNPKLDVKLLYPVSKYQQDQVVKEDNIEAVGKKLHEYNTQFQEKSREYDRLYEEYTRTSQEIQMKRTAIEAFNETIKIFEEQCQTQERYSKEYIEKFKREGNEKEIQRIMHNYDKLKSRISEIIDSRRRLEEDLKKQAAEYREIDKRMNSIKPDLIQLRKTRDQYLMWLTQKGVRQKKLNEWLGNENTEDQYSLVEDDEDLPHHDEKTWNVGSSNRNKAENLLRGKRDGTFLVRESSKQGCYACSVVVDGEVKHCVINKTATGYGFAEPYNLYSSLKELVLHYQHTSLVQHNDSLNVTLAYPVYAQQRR
Test [4] has as its target PI 3-kinase beta (Homo sapiens (Human), UniProt P42338). Conditions: read-out: Assay B PI3Kβ IC50.
Test [5] concerns the target PI 4-kinase beta (Homo sapiens (Human), UniProt Q9UBF8). The conditions noted are these: read-out: Assay D PI4Kβ IC50.
Test [6] addresses PI 3-kinase gamma (Homo sapiens (Human), UniProt P48736).
Test [7] deals with PI 3-kinase delta (Homo sapiens (Human), UniProt O00329). Conditions: read-out: Assay F PI3Kδ IC50.

PI 3-kinase gamma, sequence (P48736 whole entry): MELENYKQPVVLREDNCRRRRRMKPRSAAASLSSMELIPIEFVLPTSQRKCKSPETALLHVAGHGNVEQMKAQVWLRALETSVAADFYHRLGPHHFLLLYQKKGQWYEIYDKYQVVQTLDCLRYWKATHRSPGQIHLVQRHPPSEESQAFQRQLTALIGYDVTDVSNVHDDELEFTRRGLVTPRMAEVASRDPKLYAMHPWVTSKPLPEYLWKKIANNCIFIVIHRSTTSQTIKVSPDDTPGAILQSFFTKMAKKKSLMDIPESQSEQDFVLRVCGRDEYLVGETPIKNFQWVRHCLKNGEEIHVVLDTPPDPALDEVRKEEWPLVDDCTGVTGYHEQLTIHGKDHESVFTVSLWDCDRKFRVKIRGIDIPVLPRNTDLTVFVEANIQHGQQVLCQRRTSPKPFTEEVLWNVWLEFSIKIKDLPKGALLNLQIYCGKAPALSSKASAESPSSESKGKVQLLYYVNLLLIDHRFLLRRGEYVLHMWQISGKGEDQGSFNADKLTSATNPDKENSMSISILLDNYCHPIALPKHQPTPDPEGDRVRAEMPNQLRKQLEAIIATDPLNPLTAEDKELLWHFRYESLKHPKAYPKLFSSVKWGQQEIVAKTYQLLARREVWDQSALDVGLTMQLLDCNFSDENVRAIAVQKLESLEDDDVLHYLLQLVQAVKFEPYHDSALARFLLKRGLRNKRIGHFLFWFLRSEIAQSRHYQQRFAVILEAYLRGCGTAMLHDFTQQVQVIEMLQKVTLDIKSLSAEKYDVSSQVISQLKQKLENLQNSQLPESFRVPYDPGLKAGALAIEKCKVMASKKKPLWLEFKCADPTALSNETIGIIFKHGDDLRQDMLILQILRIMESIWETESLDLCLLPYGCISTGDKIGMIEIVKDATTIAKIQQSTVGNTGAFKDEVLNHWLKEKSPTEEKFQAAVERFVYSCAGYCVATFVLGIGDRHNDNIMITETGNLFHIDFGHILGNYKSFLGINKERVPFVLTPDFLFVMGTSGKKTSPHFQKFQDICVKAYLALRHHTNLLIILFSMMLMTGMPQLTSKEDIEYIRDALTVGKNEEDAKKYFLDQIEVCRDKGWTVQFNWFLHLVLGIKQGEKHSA
PI 4-kinase beta, sequence (Q9UBF8 whole entry): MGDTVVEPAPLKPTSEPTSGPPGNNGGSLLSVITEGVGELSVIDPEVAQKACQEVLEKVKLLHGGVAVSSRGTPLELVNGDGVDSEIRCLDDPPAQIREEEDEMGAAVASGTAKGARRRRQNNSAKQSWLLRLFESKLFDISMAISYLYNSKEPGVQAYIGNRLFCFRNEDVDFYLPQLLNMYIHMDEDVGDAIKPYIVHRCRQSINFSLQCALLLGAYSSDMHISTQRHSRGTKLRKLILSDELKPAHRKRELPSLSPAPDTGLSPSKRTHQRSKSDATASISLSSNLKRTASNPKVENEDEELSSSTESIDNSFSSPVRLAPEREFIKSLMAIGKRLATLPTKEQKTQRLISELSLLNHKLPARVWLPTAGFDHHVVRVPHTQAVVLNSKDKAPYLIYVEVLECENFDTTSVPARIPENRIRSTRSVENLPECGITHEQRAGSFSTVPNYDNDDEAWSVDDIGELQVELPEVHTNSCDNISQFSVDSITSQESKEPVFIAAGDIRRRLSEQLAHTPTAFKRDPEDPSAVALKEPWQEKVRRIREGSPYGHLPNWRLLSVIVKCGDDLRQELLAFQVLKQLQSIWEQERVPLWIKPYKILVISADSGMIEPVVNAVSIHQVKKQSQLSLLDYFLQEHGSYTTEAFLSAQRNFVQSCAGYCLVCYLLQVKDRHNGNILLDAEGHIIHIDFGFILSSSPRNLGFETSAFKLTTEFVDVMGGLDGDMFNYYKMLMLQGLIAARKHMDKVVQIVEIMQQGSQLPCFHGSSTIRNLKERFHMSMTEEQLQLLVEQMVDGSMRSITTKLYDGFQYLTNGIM
PI 3-kinase beta, sequence (P42338 whole entry, looked up): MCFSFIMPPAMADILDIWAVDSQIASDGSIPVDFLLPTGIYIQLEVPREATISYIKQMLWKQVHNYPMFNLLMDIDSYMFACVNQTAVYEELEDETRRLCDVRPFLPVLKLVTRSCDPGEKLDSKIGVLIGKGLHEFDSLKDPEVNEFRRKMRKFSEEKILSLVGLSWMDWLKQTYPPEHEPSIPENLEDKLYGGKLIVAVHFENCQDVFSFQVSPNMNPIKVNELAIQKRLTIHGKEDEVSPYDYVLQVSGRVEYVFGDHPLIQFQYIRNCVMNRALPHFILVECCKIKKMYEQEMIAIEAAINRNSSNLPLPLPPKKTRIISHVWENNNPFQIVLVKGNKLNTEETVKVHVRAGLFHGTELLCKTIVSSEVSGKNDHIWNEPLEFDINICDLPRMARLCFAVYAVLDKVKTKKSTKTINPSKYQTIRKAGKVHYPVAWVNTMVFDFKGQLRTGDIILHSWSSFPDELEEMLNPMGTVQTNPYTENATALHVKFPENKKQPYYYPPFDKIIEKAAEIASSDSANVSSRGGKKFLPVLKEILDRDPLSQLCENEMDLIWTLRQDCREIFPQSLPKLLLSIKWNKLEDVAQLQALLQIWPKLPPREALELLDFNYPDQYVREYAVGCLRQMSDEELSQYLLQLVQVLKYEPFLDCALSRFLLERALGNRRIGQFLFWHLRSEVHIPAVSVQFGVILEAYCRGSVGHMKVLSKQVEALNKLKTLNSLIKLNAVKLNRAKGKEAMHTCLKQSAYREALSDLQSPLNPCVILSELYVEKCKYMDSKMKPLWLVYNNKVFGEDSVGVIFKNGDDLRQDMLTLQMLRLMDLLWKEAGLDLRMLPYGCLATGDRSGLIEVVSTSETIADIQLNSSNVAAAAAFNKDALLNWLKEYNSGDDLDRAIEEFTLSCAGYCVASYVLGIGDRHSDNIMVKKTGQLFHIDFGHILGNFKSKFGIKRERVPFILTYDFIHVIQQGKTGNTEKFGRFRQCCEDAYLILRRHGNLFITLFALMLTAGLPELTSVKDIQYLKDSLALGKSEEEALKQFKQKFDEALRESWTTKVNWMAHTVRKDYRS
PI 3-kinase beta, sequence (P27986 whole entry partner, looked up): as the sequence (P27986 whole entry partner, looked up) above

Consider `Cc1noc(-c2cc(-c3cc(S(=O)(=O)NCCN)ccc3C)cnc2N)n1` [Example 37.29, 3-(6-Amino-5-(3-methyl-1,2,4-oxadiazol-5-yl)pyridin-3-yl)-N-(2-aminoethyl)-4-methylbenzenesulfonamide], for which the IC50 in test [1] was more than 10 µM; in test [2], more than 10 µM; in test [3], 910 nM; in test [4], 910 nM; in test [5], 7.1 µM.

Regarding `Cc1ccc(S(=O)(=O)N[C@H]2CC[C@H](O)CC2)cc1-c1cnc(N)c(-c2cnn(C)c2)c1` [Example 4.1, trans 3-(6-Amino-5-(1-methyl-1H-pyrazol-4-yl)pyridin-3-yl)-N-(4-hydroxycyclohexyl)-4-methylbenzene-sulfonamide], the IC50 in test [1] was 6.6 µM; in test [2], 9.5 µM; in test [3] it was 280 nM; in test [4], 1600 nM; in test [5] it was 3.9 µM.

Turning to `Cc1noc(-c2cc(-c3cc(S(=O)(=O)NCC(C)(C)O)ccc3C(F)(F)F)cnc2N)n1` [3-(6-amino-5-(3-methyl-1,2,4-oxadiazol-5-yl)pyridin-3-yl)-N-(2-hydroxy-2-methylpropyl)-4-(trifluoromethyl)benzenesulfonamide], in test [6], the “activity in assay E” value is “inactive”.

For the molecule `Cc1cc(-c2cc(-c3cc(S(=O)(=O)N4CC[C@H](N(C)C)C4)ccc3C)cnc2N)on1` [Example 19.22, (S)-5-(5-((3-(dimethylamino)pyrrolidin-1-yl)sulfonyl)-2-methylphenyl)-3-(3-methylisoxazol-5-yl)pyridin-2-amine acetic acid salt], the 50% inhibitory concentration (IC50) in test [1] was more than 10 µM; in test [3] it was 2000 nM; in test [4], 5800 nM; in test [5] it was 8.6 µM.

Turning to `Cc1noc(-c2cc(-c3cc(S(=O)(=O)N[C@@H]4CCNC(=O)C4)ccc3C)cnc2N)n1` [Example 37.25, (R)-3-(6-Amino-5-(3-methyl-1,2,4-oxadiazol-5-yl)pyridin-3-yl)-4-methyl-N-(2-oxopiperidin-4-yl)benzenesulfonamide], the IC50 in test [1] is more than 10 µM; in test [2] it was more than 10 µM; in test [3], 3800 nM; in test [4], more than 10000 nM; in test [5], more than 10 µM.

As for `Cc1cc(-c2cnc(N)c(-c3nc(C)no3)c2)cc(S(=O)(=O)NCC(C)(C)O)c1` [3-(6-amino-5-(3-methyl-1,2,4-oxadiazol-5-yl)pyridin-3-yl)-N-(2-hydroxy-2-methylpropyl)-5-methylbenzenesulfonamide], the “activity in assay E” value in test [6] is “inactive”.

As to `Cc1ncc(-c2cc(-c3cc(S(=O)(=O)N4CC(CO)C4)ccc3C)cnc2N)s1` [Example 83.1, (1-((3-(6-Amino-5-(2-methylthiazol-5-yl)pyridin-3-yl)-4-methylphenyl)sulfonyl)azetidin-3-yl)methanol], the values for the IC50 in test [3], in test [4] and in test [7] were 400 nM, 2500 nM and 1300 nM, respectively.

On to `Cc1ncc(-c2cc(-c3cc(S(=O)(=O)NCC4COC4)ccc3C)cnc2N)s1` [Example 83.2, 3-(6-Amino-5-(2-methylthiazol-5-yl)pyridin-3-yl)-4-methyl-N-(oxetan-3-ylmethyl)benzenesulfonamide], for which the half-maximal inhibitory concentration (IC50) was 6.2 µM in test [1], 400 nM in test [3], 6200 nM in test [4] and 2.4 µM in test [5].

Turning to `Cc1ccc(S(=O)(=O)NC2CC3(CC(O)C3)C2)cc1-c1cnc(N)c(-c2cn(C)nc2C)c1` (centres unmarked) [Example 26, 3-(6-Amino-5-(1,3-dimethyl-1H-pyrazol-4-yl)pyridin-3-yl)-N-(6-hydroxyspiro[3.3]heptan-2-yl)-4-methylbenzenesulfonamide], the IC50 in test [1] is more than 10 µM; in test [2], 0.32 µM; in test [3], 220 nM; in test [4], 3000 nM; in test [5] it was 3.4 µM.

Regarding `Cc1nnc(-c2cc(-c3cc(S(=O)(=O)NCCC(C)(C)O)ccc3C)cnc2N)o1` [Example 5.6, 3-(6-Amino-5-(5-methyl-1,3,4-oxa-diazol-2-yl)pyridin-3-yl)-N-(3-hydroxy-3-methylbutyl)-4-methylbenzenesulfon-amide], the IC50 was more than 10 µM in test [1]; more than 10 µM in test [2]; 700 nM in test [3]; 4500 nM in test [4]; 7.8 µM in test [5].

In the case of `Cc1ncc(-c2cc(-c3cc(S(=O)(=O)NC4CC5(CC(O)C5)C4)ccc3C)cnc2N)s1` (centres unmarked) [Example 28, 3-(6-Amino-5-(2-methylthiazol-5-yl)pyridin-3-yl)-N-(6-hydroxyspiro[3.3]heptan-2-yl)-4-methylbenzenesulfonamide], the IC50 turned out to be 2 µM in test [1], 50 nM in test [3], 450 nM in test [4] and 0.68 µM in test [5].

Turning to `Cc1ncc(-c2cc(-c3cc(S(=O)(=O)NCCO)ccc3C)cnc2N)s1` [Example 83.5, 3-(6-Amino-5-(2-methylthiazol-5-yl)pyridin-3-yl)-N-(2-hydroxyethyl)-4-methylbenzenesulfonamide], the IC50 in test [1] turned out to be 5.2 µM; in test [3] it was 430 nM; in test [4], 3400 nM; in test [5] it was 2.8 µM.

For `Cc1noc(-c2cc(-c3cc(C(F)(F)F)cc(S(=O)(=O)NCC(C)(C)O)c3)cnc2N)n1` [3-(6-amino-5-(3-methyl-1,2,4-oxadiazol-5-yl)pyridin-3-yl)-N-(2-hydroxy-2-methylpropyl)-5-(trifluoromethyl)benzenesulfonamide], in test [6], the “activity in assay E” value is “inactive”.

As for `Cc1cc(-c2cc(-c3cc(S(=O)(=O)NCC(F)(F)F)ccc3C)cnc2N)on1` [Example 39, 3-(6-Amino-5-(3-methylisoxazol-5-yl)pyridin-3-yl)-4-methyl-N-(2,2,2-trifluoroethyl)benzenesulfonamide], the half-inhibitory concentration (IC50) in test [1] is more than 10 µM; in test [3], 450 nM; in test [4] it was 3700 nM; in test [5], 1.3 µM.

On to `Cc1ncc(-c2cc(-c3cc(S(=O)(=O)N[C@H]4CCC[C@H](O)C4)ccc3C)cnc2N)o1` [Example 112, 3-(6-amino-5-(2-methyloxazol-5-yl)pyridin-3-yl)-N-((1S,3S)-3-hydroxycyclohexyl)-4-methylbenzenesulfonamide], for which the half-inhibitory concentration (IC50) came to 3.5 µM in test [1], 140 nM in test [3], 660 nM in test [4] and 0.73 µM in test [5].

Regarding `Cc1cccc(NS(=O)(=O)c2ccc(C)c(-c3cnc(N)c(-c4cnn(C)c4)c3)c2)n1` [Example 30, 3-(6-Amino-5-(1-methyl-1H-pyrazol-4-yl)pyridin-3-yl)-4-methyl-N-(6-methylpyridin-2-yl)benzenesulfonamide], the concentration for half-maximal inhibition (IC50) in test [1] was more than 10 µM; in test [2], 4.7 µM; in test [3], 330 nM; in test [4], 1500 nM; in test [5] it was 3.1 µM.

Take `Cc1cc(-c2cc(-c3cc(S(=O)(=O)N[C@H]4CC[C@H](O)CC4)ccc3C)cnc2N)ccn1` [Example 4.3, trans 3-(2-Amino-2′-methyl-[3,4′-bipyridin]-5-yl)-N-(4-hydroxycyclohexyl)-4-methyl-benzenesulfonamide]: the concentration for half-maximal inhibition (IC50) in test [1] is more than 10 µM; in test [2] it was 7.3 µM; in test [3], 260 nM; in test [4], 7200 nM; in test [5], 1.7 µM.
